From publication PMC6009898 (Journal of Enzyme Inhibition and Medicinal Chemistry, 2017)
Where two headings read alike, the source gives them in different places.

Experiments:
human AChE = biological target: T1, human AChE (Homo sapiens, UniProt P22303); assay: biochemical; details: means ± SD of three experiments; read-out: IC50 hAChE
T1 construct: Acetylcholinesterase (E.C. 3.1.1.7) from electric eel and human erythrocytes; purchased Sigma-Aldrich (St. Louis, MO); host or cells: human erythrocytes

[1] = biological target: T2, BuChE (from equine serum) (Equus caballus, UniProt P81908); assay: biochemical; type: biochemical; details: for IC50: means ± SD of three experiments
T2 construct: butyrylcholinesterase (BuChE, E.C. 3.1.1.8) from equine serum and human serum; purchased Sigma-Aldrich (St. Louis, MO); host or cells: equine serum

AChE (from electric eel) = biological target: T3, AChE (from electric eel) (Electrophorus electricus, UniProt O42275); assay: biochemical; details: means ± SD of three experiments; read-out: IC50 eeAChE
T3 construct: Acetylcholinesterase (E.C. 3.1.1.7) from electric eel and human erythrocytes; purchased Sigma-Aldrich (St. Louis, MO); host or cells: electric eel (natural source)

Aβ (1–42) [2] = biological target: T4, Aβ (1–42) (Homo sapiens, UniProt P05067); assay: Inhibition of Aβ (1–42) self-induced aggregation (Thioflavin T assay); details: read-out: Aβ (1–42) aggregation inhibition (%)
AChE = details: cited from earlier work
in vitro = assay: in vitro; set-up: Papp at 16 h: dose or concentration left out as unconfirmed; details: PAMPA
Experimental: Commercial drugs were purchased from Sigma (St. Louis, MO) and Alfa Aesar (Haverhill, MA). The porcine brain lipid (PBL) was obtained from Avanti Polar Lipids (Alabaster, AL). The donor microplate (PVDF membrane, pore size […]) and the acceptor microplate were both from Millipore (Darmstadt, Germany). The 96-well UV plate (COSTAR^@) was from Corning Incorporated (Harrodsburg, KY). The acceptor 96-well microplate was filled with 300 μL of PBS/EtOH (7:3), and the filter membrane was impregnated with 4 μL of PBL in dodecane (20 mg/mL). […] The […] was carefully placed on the donor plate to form a sandwich, which was left undisturbed for 16 h at 25 °C. After incubation, the donor plate was carefully removed and the concentration of compound in the acceptor wells was determined using an UV plate reader (Flexstation^@ 3). Every sample was analyzed at five wavelengths, in four wells, in at least three independent runs, and the results are given as the mean ± SD. In each experiment, nine quality control standards of known BBB permeability were included to validate the analysis set.

Aβ (1–42) [3] = biological target: T4, Aβ (1–42); assay: Inhibition of Cu^2+-induced Aβ (1–42) aggregation (ThT assay); type: biochemical; details: Aβ 25 μM, compound 50 μM, Cu^2+ 25 μM, 37 °C, 24 h; read-out: Inhibition of Cu^2+-induced Aβ aggregation
Experimental: The mixture of the peptide (10 μL, 25 μM, final concentration) with or without copper (10 μL, 25 μM, final concentration) and the test compound (10 μL, 50 μM, final concentration) were incubated at 37 °C for 24 h. The 20 μL of the sample was diluted to a final volume of 200 μL with […] glycine–NaOH buffer (pH 8.0) containing ThT (5 μM). The detection method was the same as that of self-induced Aβ aggregation experiment.

T3 sequence (O42275 24-633): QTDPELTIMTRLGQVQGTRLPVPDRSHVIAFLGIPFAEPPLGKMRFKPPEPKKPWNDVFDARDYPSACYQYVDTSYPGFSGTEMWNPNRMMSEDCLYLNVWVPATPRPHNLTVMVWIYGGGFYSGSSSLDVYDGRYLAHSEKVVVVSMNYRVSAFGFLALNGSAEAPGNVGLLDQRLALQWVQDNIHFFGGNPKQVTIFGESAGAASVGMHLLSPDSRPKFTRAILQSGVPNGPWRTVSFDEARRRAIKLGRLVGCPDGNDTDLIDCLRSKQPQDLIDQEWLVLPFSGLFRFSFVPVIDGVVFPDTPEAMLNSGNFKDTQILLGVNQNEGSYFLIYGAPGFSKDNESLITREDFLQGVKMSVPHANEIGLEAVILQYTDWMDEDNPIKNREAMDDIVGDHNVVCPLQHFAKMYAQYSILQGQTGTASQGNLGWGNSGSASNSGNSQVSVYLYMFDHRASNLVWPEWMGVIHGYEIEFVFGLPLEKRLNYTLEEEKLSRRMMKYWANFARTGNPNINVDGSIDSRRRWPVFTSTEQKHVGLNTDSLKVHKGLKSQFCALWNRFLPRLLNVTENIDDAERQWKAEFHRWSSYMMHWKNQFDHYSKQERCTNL
T1 sequence (P22303 other isoform, or with tags, fused parts or gaps): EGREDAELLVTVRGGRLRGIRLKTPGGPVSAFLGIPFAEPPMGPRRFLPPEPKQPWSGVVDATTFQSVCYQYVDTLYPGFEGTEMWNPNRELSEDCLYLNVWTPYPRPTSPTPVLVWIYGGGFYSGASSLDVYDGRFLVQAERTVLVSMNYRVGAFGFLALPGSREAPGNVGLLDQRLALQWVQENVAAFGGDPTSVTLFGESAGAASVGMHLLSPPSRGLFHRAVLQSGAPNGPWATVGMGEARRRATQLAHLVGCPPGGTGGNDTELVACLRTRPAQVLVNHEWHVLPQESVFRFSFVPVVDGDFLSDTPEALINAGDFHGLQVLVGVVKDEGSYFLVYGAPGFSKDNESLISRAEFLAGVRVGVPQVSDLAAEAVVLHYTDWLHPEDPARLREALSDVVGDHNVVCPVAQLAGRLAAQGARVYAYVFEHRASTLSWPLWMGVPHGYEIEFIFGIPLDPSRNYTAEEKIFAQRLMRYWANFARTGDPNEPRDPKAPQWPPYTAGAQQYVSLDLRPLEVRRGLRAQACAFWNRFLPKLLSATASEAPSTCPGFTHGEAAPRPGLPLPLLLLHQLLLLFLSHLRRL
T4 sequence (P05067 672-713): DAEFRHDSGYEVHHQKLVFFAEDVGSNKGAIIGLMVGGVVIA
T2 sequence (P81908 whole entry): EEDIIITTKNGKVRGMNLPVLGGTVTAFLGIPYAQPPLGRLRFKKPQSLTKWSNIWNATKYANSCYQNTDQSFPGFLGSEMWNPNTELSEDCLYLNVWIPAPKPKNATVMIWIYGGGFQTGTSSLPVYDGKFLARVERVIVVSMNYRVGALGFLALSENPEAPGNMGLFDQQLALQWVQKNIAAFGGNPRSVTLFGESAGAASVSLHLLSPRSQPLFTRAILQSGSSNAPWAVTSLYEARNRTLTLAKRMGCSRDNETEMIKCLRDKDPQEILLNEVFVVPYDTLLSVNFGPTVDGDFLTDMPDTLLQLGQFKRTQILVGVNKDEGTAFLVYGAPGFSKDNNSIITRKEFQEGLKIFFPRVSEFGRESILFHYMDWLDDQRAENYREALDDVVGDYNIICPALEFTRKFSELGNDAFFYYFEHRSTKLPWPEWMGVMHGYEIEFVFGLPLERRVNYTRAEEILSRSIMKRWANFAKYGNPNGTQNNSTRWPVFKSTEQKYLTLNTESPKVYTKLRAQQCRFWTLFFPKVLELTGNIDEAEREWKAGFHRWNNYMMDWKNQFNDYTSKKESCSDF

With `COc1ccc(/C=C/C(=O)Nc2cc[n+](Cc3ccc(Br)cc3)cc2)cc1OC.[Br-]` [Compound 5n, (E)-1-(4-bromobenzyl)-4-(3-(3,4-dimethoxyphenyl)acrylamido) pyridin-1-ium bromide] the IC50 (human AChE) was 51.1 ± 4.8 nM, the IC50 ([1]; IC50 eqBuChE) was 1.9 ± 0.5 µM and the “Times more potent against BuChE than donepezil” value ([1]; eqBuChE IC50 compared with donepezil) was 2.3 times. The “ABTS assay (trolox equiv)” value was “N (N means <0.05)”, the IC50 (AChE (from electric eel)) was 50.3 ± 8.3 nM and the inhibition at 20 µM (Aβ (1–42) [2]) was 66.3 ± 2.9%.

For `COc1ccc(/C=C/C(=O)Nc2cc[n+](Cc3ccc(C)cc3)cc2)cc1OC.[Br-]` [Compound 5j, (E)-4-(3-(3,4-dimethoxyphenyl)acrylamido)-1-(4-methylbenzyl) pyridin-1-ium bromide], the IC50 (human AChE) was 96.5 ± 2.8 nM, the IC50 ([1]; IC50 eqBuChE) was 3.8 ± 0.9 µM and the “ABTS assay (trolox equiv)” value was “N (N means <0.05)”. For the same compound, the IC50 (AChE (from electric eel)) was 90.7 ± 3.2 nM and the inhibition at 20 µM (Aβ (1–42) [2]) was 63.4 ± 2.8%.

For `O=C(C=Cc1ccccc1)Nc1cc[n+](Cc2ccc(Br)cc2)cc1.[Br-]` [Compound 5g, 1-(4-Bromobenzyl)-4-cinnamamidopyridin-1-ium bromide], the IC50 ([1]; IC50 eqBuChE) was 2.1 ± 0.8 µM, the “ABTS assay (trolox equiv)” value was “N (N means <0.05)” and the IC50 (AChE (from electric eel)) was 1451 ± 4.3 nM. For the same compound, the inhibition at 20 µM (Aβ (1–42) [2]) was 57.2 ± 1.1%.

In the case of `COc1ccc(/C=C/C(=O)Nc2cc[n+](Cc3cccc(Br)c3)cc2)cc1OC.[Br-]` [Compound 5m, (E)-1-(3-bromobenzyl)-4-(3-(3,4-dimethoxyphenyl)acrylamido) pyridin-1-ium bromide], the IC50 (human AChE) is reported as 79.4 ± 1.5 nM, the IC50 ([1]; IC50 eqBuChE) is reported as 2.5 ± 0.6 µM and the “ABTS assay (trolox equiv)” value is reported as “N (N means <0.05)”. For the same compound, the IC50 (AChE (from electric eel)) was 92.6 ± 9 nM and the inhibition at 20 µM (Aβ (1–42) [2]) was 62.8 ± 1.4%.

In the case of `COc1ccc(/C=C/C(=O)Nc2cc[n+](Cc3cccc(F)c3)cc2)cc1OC.[Br-]` [Compound 5k, (E)-4-(3-(3,4-dimethoxyphenyl)acrylamido)-1-(3-fluorobenzyl) pyridin-1-ium bromide], the IC50 (human AChE) is reported as 19.2 ± 1.6 nM, the IC50 ([1]; IC50 eqBuChE) is reported as 3.1 ± 0.5 µM and the “ABTS assay (trolox equiv)” value is reported as “N (N means <0.05)”. It also gave an IC50 (AChE (from electric eel)) of 20.6 ± 1 nM and an inhibition at 20 µM (Aβ (1–42) [2]) of 65.6 ± 2.3%.

For `Cc1cccc(C[n+]2ccc(NC(=O)C=Cc3ccccc3)cc2)c1.[Br-]` [Compound 5b, 4-Cinnamamido-1-(3-methylbenzyl) pyridin-1-ium bromide], the IC50 ([1]; IC50 eqBuChE) was 8.1 ± 1.3 µM, the “ABTS assay (trolox equiv)” value was “N (N means <0.05)” and the IC50 (AChE (from electric eel)) was 103 ± 9.6 nM. The inhibition at 20 µM (Aβ (1–42) [2]) was 48.5 ± 1.8%.

For `[Br-].c1ccc(C[n+]2ccccc2)cc1` [benzyl pyridinium bromide], the AChE inhibition (AChE) is listed as “micromolar range”.

`CC(=O)[C@H]1CC[C@H]2[C@@H]3CCC4=CC(=O)CC[C@]4(C)[C@H]3CC[C@]12C` [Progesterone, reference compound] gave a Papp at 16 h (in vitro) of 5.34 ×10⁻⁶ cm/s.

In the case of `O=C(C=Cc1ccccc1)Nc1cc[n+](Cc2ccccc2)cc1.[Br-]` [Compound 5a, 1-Benzyl-4-cinnamamidopyridin-1-ium bromide], the IC50 ([1]; IC50 eqBuChE) is reported as 6.3 ± 0.6 µM, the “ABTS assay (trolox equiv)” value is reported as “N^c (N means <0.05)” and the IC50 (AChE (from electric eel)) is reported as 54.1 ± 8.2 nM. The inhibition at 20 µM (Aβ (1–42) [2]) was 46.3 ± 1.6%.

For `O=C(C=Cc1ccccc1)Nc1cc[n+](Cc2ccc(F)cc2)cc1.[Br-]` [Compound 5e, 4-Cinnamamido-1-(4-fluorobenzyl) pyridin-1-ium bromide], the IC50 ([1]; IC50 eqBuChE) was 10 ± 0.4 µM, the “ABTS assay (trolox equiv)” value was “N (N means <0.05)” and the IC50 (AChE (from electric eel)) was 90.8 ± 9.2 nM. For the same compound, the inhibition at 20 µM (Aβ (1–42) [2]) was 52.8 ± 1.8%.

With `COc1ccc(/C=C/C(=O)Nc2cc[n+](Cc3ccccc3)cc2)cc1OC.[Br-]` [Compound 5h, (E)-1-benzyl-4-(3-(3,4-dimethoxyphenyl)acrylamido) pyridin-1-ium bromide] the IC50 ([1]; IC50 eqBuChE) was 4.5 ± 0.7 µM, the “ABTS assay (trolox equiv)” value was “N (N means <0.05)” and the IC50 (AChE (from electric eel)) was 135 ± 4.8 nM. For the same compound, the inhibition at 20 µM (Aβ (1–42) [2]) was 55.7 ± 3.2%.

Work on `Oc1c(I)cc(Cl)c2cccnc12` [CQ, Clioquinol, reference compound] yielded an inhibition at 50 µM (Aβ (1–42) [3]) of 60.2%.

In the case of `COc1ccc(/C=C/C(=O)Nc2cc[n+](Cc3cccc(C)c3)cc2)cc1OC.[Br-]` [Compound 5i, (E)-4-(3-(3,4-dimethoxyphenyl)acrylamido)-1-(3-methylbenzyl) pyridin-1-ium bromide], the IC50 (human AChE) is reported as 43.7 ± 0.5 nM, the IC50 ([1]; IC50 eqBuChE) is reported as 2.7 ± 0.8 µM and the “ABTS assay (trolox equiv)” value is reported as “N (N means <0.05)”. The inhibition at 20 µM (Aβ (1–42) [2]) was 53.9 ± 0.9%.

In the case of `COc1cc(/C=C/C(=O)CC(=O)/C=C/c2ccc(O)c(OC)c2)ccc1O` [Curcumin, reference compound], the inhibition at 20 µM (Aβ (1–42) [2]) is reported as 54.6 ± 2.6%.

In the case of `Cc1ccc(C[n+]2ccc(NC(=O)C=Cc3ccccc3)cc2)cc1.[Br-]` [Compound 5c, 4-Cinnamamido-1-(4-methylbenzyl) pyridin-1-ium bromide], the IC50 ([1]; IC50 eqBuChE) is reported as 25 ± 0.7 µM, the “ABTS assay (trolox equiv)” value is reported as “N (N means <0.05)” and the IC50 (AChE (from electric eel)) is reported as 1263.8 ± 1.2 nM. For the same compound, the inhibition at 20 µM (Aβ (1–42) [2]) was 55.1 ± 1.5%.

With `O=C(O)/C=C/c1ccccc1` [Cinnamic acid, reference compound] the IC50 ([1]; read-out: IC50 eqBuChE) was > 100 µM.

In the case of `O=C(C=Cc1ccccc1)Nc1cc[n+](Cc2cccc(Br)c2)cc1.[Br-]` [Compound 5f, 1-(3-Bromobenzyl)-4-cinnamamidopyridin-1-ium bromide], the IC50 ([1]; IC50 eqBuChE) is reported as 2.5 ± 0.3 µM, the “ABTS assay (trolox equiv)” value is reported as “N (N means <0.05)” and the IC50 (AChE (from electric eel)) is reported as 154 ± 2.6 nM. It also gave an inhibition at 20 µM (Aβ (1–42) [2]) of 48.8 ± 2.1%.

For `O=C(C=Cc1ccccc1)Nc1cc[n+](Cc2cccc(F)c2)cc1.[Br-]` [Compound 5d, 4-Cinnamamido-1-(3-fluorobenzyl) pyridin-1-ium bromide], the IC50 ([1]; IC50 eqBuChE) was 7.4 ± 0.5 µM, the “ABTS assay (trolox equiv)” value was “N (N means <0.05)” and the IC50 (AChE (from electric eel)) was 93.5 ± 7.7 nM. It also gave an inhibition at 20 µM (Aβ (1–42) [2]) of 53.6 ± 2.3%.
